From patent publication US8481494B2, “Compounds for the treatment of diseases related to protein misfolding” (priority 2009, dated 2013)
Converted amounts (≈) assume the structure as drawn. Read-outs that look alike come from different tables or passages of the source. *1 amine or outer side, *2 acyl side, *3 side chain or, on linkers, in order; H or OH if unused. Where a SMILES comes first, the peptide text is derived from it. [ ]: non-standard residue; d: D form. The star is where a group is joined. X1 = O=C(c1cc([N+](=O)[O-])n[nH]1)*; X2 = O=C(c1cc(N[*:1])n[nH]1)[*:2]; AEEEA = NCCOCCOCCOCC(=O)O

Tests used:
[1] = target: T1, preformed Aβ(1-42) fibrils (Homo sapiens, UniProt P05067); assay: ThT equilibrium disaggregation assay of preformed fibrils; assay type: biochemical; conditions: 33 μM Aβ42 preformed fibrils, 198 μM ligand, 10 mM PBS pH 7.3
T1 construct: Aβ(1-42)-peptide (Bachem, Bubendorf, Germany) was prepared in HFIP; purchased Bachem, Bubendorf
T1 sequence (P05067 672-713 limits assumed): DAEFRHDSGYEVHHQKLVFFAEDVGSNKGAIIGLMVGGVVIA
Source text: Starting from preformed fibrils, the disassembly process was also monitored with the full series of modified trimeric aminopyrazoles. […] In other words, little difference is observed between the end points of aggregation assays, in which the ligand inhibits de novo aggregation starting from monomeric Aβ molecules, and those experiments, which require disaggregation of preformed fibrils by externally added ligand. Experimental evidence is thus provided for the fact, that aminopyrazole ligands operate in a fully reversible fashion, and reach an open equilibrium when the thermodynamically most favorable complex is formed.
(§1) Thioflavin T (ThT) measurements were carried out in a 384-well plate (Nunc GmbH, Wiesbaden, Germany) in an InfiniTe 200 plate reader (Tecan GmbH, Crailsheim, Germany). Fluorescence intensity was measured at 37° C., 446 nm excitation wavelength (bandwidth 9 nm) and 490 nm emission wavelength with a bandwidth of 20 nm. Each data point was averaged over 40 lamp flashes. Each measurement cycle was started by shaking the sample carrier orbitally for 30 s at medium intensity to avoid settling of larger aggregates. The 384-well plate was covered with a transparent and DMSO-stable film (Nunc GmbH, Wiesbaden, Germany). Each single sample was composed of 33 μM Aβ(1-40) or rather Aβ(1-42) in 10 mM PBS (phosphate buffered saline), 10.7% DMSO, 10 μM ThT and 198 μM of the test compound. For graph representation emission values of fourfold samples were averaged. Each test compound was measured separately, both in 10 mM PBS and 10 mM PBS with ThT to exclude any potential interactions between ligand and ThT.
After that, 9.5 μL ThT (62.7 μM stock solution) was pipetted and the assay solution was briefly centrifugated. The ThT fluorescence was measured at λEx=446 nm and λEm=490 nm. For graph representation emission values of fourfold samples were averaged.

Aβ(1-42) = target: T2, Aβ(1-42) (Homo sapiens, UniProt P05067); assay: ThT equilibrium inhibition assay of Aβ aggregation; assay type: biochemical; conditions: for ThT fluorescence level, inhibition of aggregation: 33 μM Aβ42, 198 μM ligand, 10 mM PBS pH 7.3, 72 h
T2 construct: Aβ(1-42)-peptide (Bachem, Bubendorf, Germany) was prepared in HFIP; purchased Bachem, Bubendorf
T2 sequence (P05067 672-713 limits assumed): as above
Experimental: After 72 h, the aggregation process has reached a maximum in the absence or presence of any trimeric ligand, even for the slow Aβ (1-40) peptide. The respective equilibrium concentration is then indicated by the relative fluorescence intensity reached at the end point. The full series of new aminopyrazole trimer derivatives was subjected to ThT inhibition experiments and the final equilibrium was analyzed by comparison of the respective fluorescence intensities of intercalated dye at 482 nm (exc. at 442 nm). […] Their proposed mechanism of action is discussed within the next chapters together with all the other biophysical, biochemical as well as modeling data.
as §1
The ThT assay solution was briefly centrifugated and it was pipetted in a 384-well plate. The ThT fluorescence was measured at λEx=446 nm and λEm=490 nm. Each point is the average of quadruplication.

[2] = test system: differentiated rat pheochromocytoma (PC-12) cells; assay: cells
Experimental: Next, to examine whether the aminopyrazole trimers could protect cell from Aβ42-induced neurotoxicity, cells were treated for […] with 10 μM Aβ(1-42), a concentration that produces 30 to 40% decrease in cell viability, in the absence or presence of 100 μM of each compound. The viability of the cells then was assessed using the MTT assay.
MTT viability assays. Cell viability assays were performed as described in Fradinger et al. (Fradinger et al., PNAS, 2008). Rat pheochromocytoma (PC-12) cells were maintained in F-12 nutrient mixture with Kaighn's modification (F-12K) (Gibco BRL, Carlsbad, Calif.) with 15% heat-inactivated horse serum and 2.5% FBS at 37° C. in an atmosphere of 5% CO2. For cell viability assays, cells were plated in 96-well plates at a density of 25,000 cells per well in differentiation media (F-12K, 0.5% FBS, […] nerve growth factor) and maintained for 48 h. Aβ42 was solubilized in a minimal amount of DMSO (Sigma) and then diluted in the F-12K media in the absence or presence of the compounds and then added to cells and incubated for 48 h at 37° C. The final Aβ42 concentration was always kept constant at 10 μM. The stock solutions of the compounds were prepared at 10 mM in DMSO and diluted in the F-12K media at the required concentration. Negative controls included DMSO at the same concentration as in the peptide solutions and media alone. A positive control was […] staurosporine as lethal dose which represented 100% reduction in cell viability, based on which the percentage viability of all of the experimental conditions was calculated. Cell viability was assessed quantitatively by the CellTiter 96 Non-Radioactive Cell Proliferation Assay (Promega). Briefly, 15 μl of 3-(4,5-dimethylthiazol-2-yl)-2,5-diphenyltetra-zolium bromide (MTT) dye solution was incubated with the cells for 3 h. Then 100 μl of solubilization/stop solution was added and the plates were incubated overnight in the dark to ensure complete solubilization. Plates were read by using a Synergy HT microplate reader (BioTek), and the absorbance at 570 nm (formazan product) minus the absorbance at 630 nm (background) was recorded. Corrected absorbance was used to calculate the percent cell viability from the experimental change (Amedia-Aexperimental) over the dynamic range (Amedia-Astaurosporine). At least three independent experiments with six replicates (n≧18) were carried out, and the results were averaged.
To determine the IC50 value of each of the compounds, dose-dependence MTT experiments with the compounds were conducted. Aβ42 was used at 10 μM and the compounds were used at 100, 30, 10, 3, 1 and 0.3 μM. Three independent experiments with six replicates (n≧18) were carried out, and results were averaged. The data for each compound was fitted to the following equation to get the IC50 values. y=Bottom+((Top−Bottom)/(1+10^(x-log(IC^50^))))
Top: the y value at which the top of the sigmoidal curve becomes parallel to the X-axis; Bottom: the y value at which the bottom of the sigmoidal curve becomes parallel to the X-axis.
Also, MTT viability assays were run with differentiated PC-12 cells.

Row | solubility [mM] | IC50 [2] [µM] | Structure (SMILES) | ThT fluorescence level, disaggregation [1] [%] | ThT fluorescence level, inhibition of aggregation (Aβ(1-42)) [%] | ThT values compared with the original trimer (Aβ(1-42); Aβ(1-42), in words) | viability increase (rescue from Aβ toxicity) ([2]; PC-12 cells, 10 μM Aβ(1-42), 100 μM compound) [%] | IC50 ([2]; read-out: IC50 of inhibition of Aβ-induced toxicity, PC-12 cells, MTT, Aβ42 10 μM, ligand 0.3-100 μM) [µM]
1 | > 4.95 |  | NCCCC[C@H](NC(=O)c1cc(NC(=O)c2cc(NC(=O)c3cc([N+](=O)[O-])n[nH]3)n[nH]2)n[nH]1)C(=O)N[C@@H](CCCCN)C(=O)N[C@@H](CCCCN)C(=O)N[C@@H](CCCCN)C(=O)N[C@@H](CCCCN)C(=O)NCC(=O)O [Trimer-KKKKKG-OH, 3-(3-(3-nitro-1H-pyrazole-5-carboxamido)-1H-pyrazole-5-carboxamido)-1H-pyrazole-5-carboxamido-(S)-lysinyl-(S)-lysinyl-(S)-lysinyl-(S)-lysinyl-(S)-lysinyl-(S)-glycine] (X1-[X2][X2]KKKKKG-OH) | 20 | 20 |  |  | 
2 | 0.2 to 4.95 (≈ 240 to 5940 µg/mL) | > 100 | CC(C)C[C@H](NC(=O)[C@H](CCCCN)NC(=O)COCCOCCOCCNC(=O)c1cc(NC(=O)c2cc(NC(=O)c3cc([N+](=O)[O-])n[nH]3)n[nH]2)n[nH]1)C(=O)N[C@H](C(=O)N[C@@H](Cc1ccccc1)C(=O)N[C@@H](Cc1ccccc1)C(=O)O)C(C)C [Trimer-TEG-KLVFF-OH, 1-(3-(3-(3-Nitro-1H-pyrazole-5-carboxamido)-1H-pyrazole-5-carbox-amido)-1H-pyrazol-5-yl)-1-oxo-5,8,11-trioxa-2-azatridecan-13-carboxamido-(S)-lysinyl-(S)-leucinyl-(S)-valinyl-(S)-phenylalaninyl-(S)-phenylalanine] (X1-[X2][X2][AEEEA]KLVFF-OH) |  |  |  |  | 
3 |  |  | COC(=O)C(CCCCN)NC(=O)COCCOCCOCCNC(=O)c1cc(NC(=O)c2cc(NC(=O)c3cc([N+](=O)[O-])n[nH]3)n[nH]2)n[nH]1.O=C(O)C(F)(F)F (stereo not shown) [Trimer-TEG-Lys-OMe, Trifluoro-acetate5-methoxycarbonyl-5-(2-{2-[2-(2-{[5-({5-[(5-nitro-2H-pyrazole-3-carbonyl)-amino]-2H-pyrazole-3-carbonyl}-amino)-2H-pyrazole-3-carbonyl]-amino}-ethoxy)-ethoxy]ethoxy}-acetylamino)-pentyl-ammonium] | 20 | 20 | surpass the original trimer activity | > 40 | 52.7
